Test results: patent US20250066320A1, “Active Ingredients with Sialagogue and Tingling/Fizzy Effect, and Preparations Containing Same” (Symrise AG, priority 2021, published 2025)

Experiment: Sensory tasting of the active ingredients (mouth-watering and/or tingling effect) by a trained expert panel
Assay type: in vivo, human
Details: for Sensory Rating (profile in words): 3 to 7 tasters; for Sensory Rating: intensity of mouth-watering and/or tingling/fizzing effect (figure in brackets): 50 ppm, scale of 1 (very weak) to 10 (very strong)
Method: The sensory tasting of the active ingredients according to the invention was carried out as follows: • (1) The active ingredients were each prepared in a 5% sugar solution or in an unflavored standard fondant mass. Fondant is the name for a soft, pasty sugar mass that is used to make various confectionery products. Fondant is made from water and sucrose as well as glucose syrup, invert sugar cream and/or sugar alcohols (e.g., sorbitol or mannitol). The mixture is boiled and then processed into a soft paste by kneading it vigorously and cooling it quickly. • (2) The concentration of the active ingredients was 25 or 50 ppm. • (3) The test samples were tested under practical conditions by a panel of experts with sensory training. For tasting, 3 to 7 tasters each rinsed their mouths with approx. 5 ml of the sugar solution and spat the solution out again. The mouth-watering and/or tingling effect was assessed on a scale of 1 (very weak) to 10 (very strong) and the profile evaluated.

[1] = 50 ppm in 5% sugar solution or unflavored fondant mass
[2] = 25 ppm in 5% sugar solution or unflavored fondant mass

Row | Structure (SMILES) | Sensory Rating (profile in words) [1] | Sensory Rating: intensity of mouth-watering and/or tingling/fizzing effect (figure in brackets) | Sensory Rating (profile in words) [2]
1 | COc1ccc(C(=O)N2CCCN(CCc3ccccc3)CC2)cc1OC [Compound 32, (3,4-Dimethoxy-phenyl)-[4-(2-phenyl-ethyl)-1,4-diazepan-1-yl]methanone] | very slightly tingling/ fizzing (1), slightly metallic taste | very slightly tingling/ fizzing (1), slightly metallic taste | –
2 | COc1ccc(C(=O)N2CCN(Cc3ccccc3)CC2)cc1OC [Compound 33, (4-benzylpiperazin-1-yl)-(3,4-dimethoxy-phenyl)methanone] | very slightly tingling/ fizzing (1-2), slightly like marzipan | very slightly tingling/ fizzing (1-2), slightly like marzipan | –
3 | COc1ccc(C(=O)N2CCN(CCCCc3ccccc3)CC2)cc1 [Compound 34, (4-Methoxy-phenyl)-[4-(4-phenyl-butyl)piperazin-1-yl]methanone] | strongly mouth-watering/ tingling/fizzing | 6 | tingling/ fizzing and mouth-watering effect, neutral taste
4 | COc1ccc(C(=O)N2CCN(CCc3ccccc3)CC2)cc1 [Compound 35, (4-Methoxy-phenyl)-[4-(2-phenyl-ethyl)piperazin-1-yl]methanone] | slightly tingling/ fizzing (3) and mouth-watering, Acid taste, Honey note | 3 | slightly mouth-watering
5 | COc1ccc(C(=O)N2CCN(CCC3CCCCC3)CC2)cc1 [Compound 36, [4-(2-cyclo-hexylethyl)piperazin-1-yl]-(4-methoxy-phenyl) methanone] | slightly tingling/fizzing (3), metallic taste | slightly tingling/fizzing (3), metallic taste | –
6 | COc1ccc(C(=O)N2CCC(CCCc3ccccc3)CC2)cc1 [Compound 37, (4-Methoxy-phenyl)-[4-(3-phenyl-propyl)-1-piperidyl]methanone] | slightly tingling/ fizzing (2), light fruity note | slightly tingling/ fizzing (2), light fruity note | –
7 | COc1ccc(C(=O)N2CCN(CCCc3ccccc3)CC2)cc1 [Compound 38, (4-Methoxy-phenyl)-[4-(3-phenylpropyl)piperazin-1-yl] methanone] | remarkably tingling/fizzing (6), numbing, Increasing effect over time | 6 | slightly mouth-watering, anesthetic
8 | COc1ccc(C(=O)N2CCN(Cc3ccccc3)CC2)cc1 [Compound 40, (4-benzylpiperazin-1-yl)-(4-methoxy-phenyl)methanone] | mouth-watering, neutral, slightly tingling/ fizzing (1-2) | mouth-watering, neutral, slightly tingling/ fizzing (1-2) | –
9 | CCOc1ccc(C(=O)N2CCN(CCCCc3ccccc3)CC2)cc1 [Compound 41, (4-ethoxyphenyl)-[4-(4-phenyl-butyl)piperazin-1-yl]methanone] | strong mouth- watering effect (8), long-lasting, Slightly hot | 8 | metallic, mouth- watering effect
10 | CCOc1ccc(C(=O)N2CCN(C/C=C/c3ccccc3)CC2)cc1 [Compound 42, [4-[(E)-cinnamyl]piperazin-1-yl]-(4-ethoxy-phenyl)methanone] | slightly tingling (3-4), and mouth- watering, fruity, creamy, Vanilla flavor | slightly tingling (3-4), and mouth- watering, fruity, creamy, Vanilla flavor | –
11 | CCOc1ccc(C(=O)N2CCN(CCc3ccccc3)CC2)cc1 [Compound 43, (4-ethoxyphenyl)-[4-(2-phenylethyl)piperazin-1-yl]methanone] | strongly bitter, metallic, tingling/fizzing (7) , and mouth-watering effect | 7 | metallic, slightly numbing, tingling/fizzing and mouth- watering effect
12 | CCOc1ccc(C(=O)N2CCN(CCC3CCCCC3)CC2)cc1 [Compound 44, [4-(2-cyclo-hexylethyl)piperazin-1-yl]-(4-ethoxy-phenyl)methanone] | slightly tingling/fizzing (4), and mouth-watering | slightly tingling/fizzing (4), and mouth-watering | –
13 | CCOc1ccc(C(=O)N2CCC(CCCc3ccccc3)CC2)cc1 [Compound 45, (4-ethoxyphenyl)-[4-(3-phenyl-propyl)-1-piperidyl]-methanone] | slightly tin- gling/ fizzing (2) | slightly tin- gling/ fizzing (2) | –
14 | CCOc1ccc(C(=O)N2CCN(CCCc3ccccc3)CC2)cc1 [Compound 46, (4-ethoxyphenyl)-[4-(3-phenyl-propyl)piperazin-1-yl]methanone] | strong, bitter, metallic and tingling/fizzing (7), and mouth-watering effect | 7 | metallic, slightly numbing, tingling and mouth- watering effect
15 | CCOc1ccc(C(=O)N2CCCN(CCc3ccccc3)CC2)cc1 [Compound 47, (4-ethoxyphenyl)-[4-(2-phenylethyl)-1,4-diazepan-1-yl]methanone] | Strong mouth-watering and tingling/fizzing effect (6), Pleasant taste | Strong mouth-watering and tingling/fizzing effect (6), Pleasant taste | –
16 | CCOc1ccc(C(=O)N2CCN(Cc3ccccc3)CC2)cc1 [Compound 48, (4-benzylpiperazin-1-yl)-(4-ethoxy-phenyl)methanone] | slightly tingling/ fizzing (1-2) | slightly tingling/ fizzing (1-2) | –
